Source: patent US7714014B2, “Targeting GLI proteins in human cancer by small molecules” (The Regents of the University of California, priority 2005, dated 2010)

Key:
[1] = tested on: NSCLC cell lines H1299 and A549, colon cancer cell lines SW480 and HCT116; test: Cell survival assay (crystal violet), initial screening; format: cell-based, human; conditions: 100 μM, all cancer cell lines tested
Procedure: Typically, the small molecule compounds of the present invention were dissolved in DMSO at a concentration of 30 mM. The small molecule compounds were then tested under cell culture conditions at different concentrations ranging from 0, 10, 30, 50, to 100 uM. To determine cell survival after treatment, the cells were incubated with the small molecule compounds in 6-well plates for about 3 days. After removal of the cell culture medium, 1-ml of 0.5% crystal violet solution (prepared in 20% ethanol and 20% methanol) was added to stain the cells for 5 min. Then the crystal violet solution was rinsed clean with tap water. Cell survival was estimated based on the density of crystal stained plates.
Initial screening of small molecule compounds of the present invention was performed using the cell-based assays described herein. […] Two NSCLC cell lines, H1299 and A549, and two colon cancer cell lines, SW480 and HCT116, were incubated with small molecule compounds FN1-1, FN1-2, FN1-3; FN1-5 and FN2-1 at a concentration of 100 μM. DMSO was used as a control. […] This assay identified the small molecule compound FN1-5 inhibiting GLI transcription activation domain (TAF-binding domain, TAFbd), as an active hit compound.

[2] = tested on: Dvl-3 and cytosolic beta-catenin in H460 tumor; test: Western blot of cytosolic proteins from xenograft tumors; format: in vivo, mouse
Procedure: (§1) To examine whether the lead compound FN1-8 suppressed tumor growth through inhibition of the Wnt signaling pathway in vivo, Western blot analysis of cytosolic proteins isolated from the H460 and HT29 xenograft tumors was performed. GAPDH served as a control. This Western Blot analysis was performed using a “pooled” tumor from two randomly selected mice of each group with reasonable size tumors.

[3] = tested on: Dvl-3 and cytosolic β-catenin in HT29 tumor; test: as above; format: in vivo, mouse; conditions: HT29 xenograft tumor (negative control)
Procedure: as §1

[4] = molecular target: T1, GLI1-TAFbd peptide / TAFII31 protein (Homo sapiens, UniProt Q16594); test: Co-immunoprecipitation of GLI-TAFbd peptide and TAFII31; format: binding
T1 construct: The full-length TAFII31 cDNA insert cloned into the (c-myc-tag)pCDNA3.1 expression vector was used as template; made in house; host or cells: cell-free: TNT quick coupled transcription/translation system (Promega)
Procedure: (§2) The binding between GLI-TAF binding domain peptides (GLI-TAFbd) and TAFII31 protein was quantified by measuring the intensity of each band of an co-immunoprecipitation experiments with arbitrary unit. The binding after DMSO treatment was set to 100% for each GLI-TAFbd peptide. The binding was interfered by FN1-8 in dose-dependent manner: the binding for GLI1-TAFbd was 73.6% and 33.5%, for GLI2-TAFbd was 73.8% and 60%, for GLI3-TAFbd was 71.6% and 28.6%, after treatment with 20 μM and 50 μM FN1-8, respectively. Details are described in Example 35.
(§3) Specifically for this experiment, biotinylated TAF binding domain of GLI proteins, GLI1, GLI2, and GLI3 (see below) were custom synthesized at Genemed Synthesis, Inc. The GLI-TAF binding domain (GLI-TAFbd) peptide sequences were as follows;
(§4) TAFII31 proteins were prepared by using the TNT quick coupled transcription/translation systems (Promega) according to the manufacturer's protocol. The full-length TAFII31 cDNA insert cloned into the (c-myc-tag)pCDNA3.1 expression vector was used as template in this in vitro translation system. An empty (c-myc-tag)pCDNA3.1 expression vector was used as a control. The biotinylated GLI peptides (i.e., the TAF binding domains of three different GLI proteins) were incubated with the TAFII31 protein in the presence or absence of small molecule compound FN1-8 (at 20 μM and 50 μM). Then the biotinylated GLI-peptide-TAFII31 complexes were precipitated with streptavidine agarose followed by immunoblotting with an anti-c-myc antibody (A-14; Santa Cruz Biotech, Inc.; Cao et al., 2001, Science 293:115-120). […] As a control, there was no pull-down of TAFII31 by all three GLI peptides when the empty (c-myc-tag)pCDNA3.1 expression vector was used in in vitro translation system (FIG. 23).

[5] = molecular target: T2, GLI2-TAFbd peptide / TAFII31 protein (Homo sapiens, UniProt Q16594); test: as above; format: binding
T2 construct: The full-length TAFII31 cDNA insert cloned into the (c-myc-tag)pCDNA3.1 expression vector was used as template; made in house; host or cells: cell-free: TNT quick coupled transcription/translation system (Promega)
Procedure: as §2, §3, §4

[6] = molecular target: T3, GLI3-TAFbd peptide / TAFII31 protein (Homo sapiens, UniProt Q16594); test: as above; format: binding
T3 construct: The full-length TAFII31 cDNA insert cloned into the (c-myc-tag)pCDNA3.1 expression vector was used as template; made in house; host or cells: cell-free: TNT quick coupled transcription/translation system (Promega)
Procedure: as §2, §3, §4

Malme-3M (melanoma) = test: Apoptosis analysis (Annexin V FITC, flow cytometry); format: cell-based, human; conditions: 10 μM
Procedure: Apoptosis was analyzed by using an Annexin V FITC Apoptosis Detection Kit (Biosource, Camarillo, Calif.), according to the manufacturer's protocol. After treatment with different small molecule compounds at various concentrations for about 3 days, cells were harvested by trypsinization, stained and immediately analyzed by flow cytometry (FACScan; Decton Dickinson, Franklin Lake, N.J.). Early apoptotic cells with exposed phosphatidylserine but intact cell membranes will bind to Annexin V-FITC, but not propidium iodide (PI). Cells in necrotic or late apoptotic stages will be labeled with both Annexin V-FITC and PI. “% apoptotic cells” or “% apoptosis” refers to the combined early and late apoptotic cells.
Dose titration experiments of small molecule compound FN1-8 was performed using the melanoma cell lines A375, G361, SK-Mel-2, SK-Mel-5, and SK-Mel-28. A 375 cells were plated in 6-well plates and incubated with DM SO (control) or 2 μM, 5 μM, 10 μM, 20 μM, and 40 μM of FN1-8, respectively, for 3 days. A dramatic and dose-dependent cell killing in this cell line was observed when FN1-8 was added at 10 μM or more (data not shown). […] After 4 days of incubation with 20 μM FN1-8, approximately 20% of the Malme-3M cells, 28% of SK-Mel-2 cells, 36% of SK-Mel-5 cells, 41% of A375 cells, and 17% of G361 cells underwent apoptosis, while less than 3% of normal skin fibroblast cells underwent apoptosis under the same conditions (Table 3).

[7] = tested on: NSCLC cells A549, H358, and H322; test: Time course of cell survival (flow cytometry); format: cell-based, human
Procedure: The time course of cell survival in NSCLC cells A549, H358, and H322 after administration of small molecule compound FN1-8 was analyzed. A549 cells were incubated with 10 μM and 20 μM FN1-8, and H358 and H322 cells were incubated with 15 μM and 30 μM FN1-8, respectively. Then flow cytometry was used to examine the percentage of living and dead cells at different time points. […] In H358 cells, the cell killing effect of FN1-8 is already apparent by 1 day, and in H322 cells by 2 days. (data not shown).

T2 sequence (Q16594 whole entry): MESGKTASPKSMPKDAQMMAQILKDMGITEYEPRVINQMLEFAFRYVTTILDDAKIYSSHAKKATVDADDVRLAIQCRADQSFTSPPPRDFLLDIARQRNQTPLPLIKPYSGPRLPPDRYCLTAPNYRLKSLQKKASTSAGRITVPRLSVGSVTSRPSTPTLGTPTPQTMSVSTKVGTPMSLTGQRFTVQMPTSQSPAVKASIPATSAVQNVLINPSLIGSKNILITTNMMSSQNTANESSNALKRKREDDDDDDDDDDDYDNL
T3 sequence (Q16594 whole entry): as above
T1 sequence (Q16594 whole entry): as above

## O=C(NCCCCCO)C1C(c2ccccc2)=NN(c2ccccc2)C1c1ccccc1 (stereo not shown) [FN1-5, N-(5-Hydroxypentyl)-1,3,5-triphenyl-4,5-dihydro-pyrazole-4-carboxyamide]
[1]
  cell killing effect: dramatic cell killing effect

## O=C(NCCc1ccc(O)cc1)C1C(c2ccccc2)=NN(c2ccccc2)C1c1ccccc1 (stereo not shown) [FN1-8, N-(2-(4-Hydroxyphenyl)ethyl)-1,3,5-triphenyl-4,5-dihydro-pyrazole-4-carboxyamide]
[2]
  Dvl-3 and cytosolic beta-catenin expression in tumor: down-regulated
[3]
  Dvl-3 and cytosolic β-catenin levels in tumor: no noticeable changes
[4]; 20 μM
  binding of GLI1-TAFbd to TAFII31 (DMSO = 100%): 73.6%
[4]; 50 μM
  binding of GLI1-TAFbd to TAFII31 (DMSO = 100%): 33.5%
[5]; 20 μM
  binding of GLI2-TAFbd to TAFII31 (DMSO = 100%): 73.8%
[5]; 50 μM
  binding of GLI2-TAFbd to TAFII31 (DMSO = 100%): 60%
[6]; 20 μM
  binding of GLI3-TAFbd to TAFII31 (DMSO = 100%): 71.6%
[6]; 50 μM
  binding of GLI3-TAFbd to TAFII31 (DMSO = 100%): 28.6%
Malme-3M (melanoma)
  % of apoptotic cells: 10.5%
[7]; A549, 10 μM and 20 μM
  time after which dose-dependent cell killing effect is shown: 3 days
[7]; H322, 15 μM and 30 μM
  time by which cell killing effect is apparent: ≤ 2 days
[7]; H358, 15 μM and 30 μM
  time by which cell killing effect is apparent: ≤ 1 days
